# Assay results taken from patent publication US20180153890A1, “PHARMACEUTICAL COMPOSITIONS AND USE THEREOF” (Hutchison MediPharma Limited, priority 2015, published 2018).
# Marks after values point to notes of the source that are not given here.
# What was measured:
# [1] = test system: NCI-H716 cells; assay: Cell viability assay on NCI-H716 (CCK-8); format: cell-based; details: Homo sapiens, 72 h incubation, read-out: IC50 on inhibition of NCI-H716 cells viability
# Method: NCI-H716: human cecum colorectal adenocarcinoma cell line, purchased from ATCC (American Type Culture Collection).
# Culture medium: RPMI 1640 containing 10% FBS.
# NCI-H716 cells were diluted with RPMI-1640 medium containing 10% FBS. 90 μL of the diluted cells were added into each well of a 96-well plate so that each well contained 1×10^4 cells. The cells were subsequently incubated at 37° C., 5% CO2 overnight.
# Test compound dissolved in DMSO was diluted to 30, 10, 3.33, 1.11, 0.37, 0.12, 0.04, 0.01 μM with serum free RPMI-1640 medium containing 5% DMSO. Then 10 μL of the diluted compound was added into the above 90 μL cell cultures (final concentration of DMSO in the reaction mixture should be 0.5%), and incubated at 37° C., 5% CO2 for 72 h.
# 10 μL of CCK-8 solution was added into cells, and incubated at 37° C., 5% CO2 for additional 1 h. The optical density of each well was measured at 450 nm and 630 nm, respectively, by Labsystems Multiskan K3.
# [formula] • [OD compound]450-630: the optical density of well containing cells with compound treatment; • [OD cell]450-630: the optical density of wells containing cells without compound treatment; • [OD background]450-630: the optical density of wells containing culture medium only.
# IC50: IC50 is calculated based on the inhibition curve fitted by XL-Fit 2.0 software.
# [2] = test system: NCI-H716 tumor; assay: Anti-tumor efficacy in NCI-H716 subcutaneous xenograft model; format: in vivo; details: three weeks
# Method: NCI-H716 cell line was purchased from ATCC (CCL-251™) and incubated in the medium of RPM11640 (Rosewell Park Memorial Institute 1640) plus 10% fetal bovine serum (FBS) at 37° C. in a 5% CO2 incubator.
# BALB/c athymic male mice (6-8 weeks) were purchased from Shanghai SLAC Laboratory Animal Co. Ltd. The mice were housed under specific pathogen free conditions. They were maintained in a 12 hour light and dark cycle with the temperature at 20-25° C. and humidity of 40%-70% and given free access to Co^60 radiated-sterile diet and autoclaved sterile water. There were four mice in each cage.
# Compound A was dissolved in 0.5% CMC-Na, vortexed for 1-3 min, sonicated for 15 min and stored at 4° C. Compound A was formulated at 2.0, 4.0 and 8.0 mg/mL and prepared once a week.
# When NCI-H716 cells reached about 80-90% in confluence, they were detached by Trypsin-EDTA and collected after centrifugation, then suspended in serum free-medium. Each mouse was injected subcutaneously in the right lateral flank with 0.2 mL of cells suspension containing 5×10^6 tumor cells with Martrigel (1:1).
# When the NCI-H716 tumors grew to around average 300 mm^3, the tumor bearing mice were randomized to vehicle and Compound A treated groups. Compound A in 0.5% CMC-Na as prepared above was orally administered to mice at 20, 40 and 80 mg/kg twice daily for three weeks, and the vehicle group received 0.5% CMC-Na orally twice daily. The dosing volume was 10 mL/kg body weight. Tumor volume (TV) was measured two times per week by caliper for length and width, and calculated using the formula: TV=width^2×length/2.
# At the end of the study, tumors were harvested and tumor growth inhibition (TGI) and tumor weight inhibition (IRTW) were calculated by the following equations, where V0 were the data at day 0 (D0) (starting day) and Vt were the data at measurement day t (Dt):
# TGI=[1−(Vt−V0)drug treated/(Vt−V0)vehicle]×100%
# IRTW(%)=[(TWvehicle−TWtreatment)/TWvehicle]×100%
# Student's t-test was used for in comparison with vehicle control. Differences were considered statistically significant at P<0.05.
# [3] = 20 mg/kg bid oral, end of study
structure (smiles),measurement,setting,value
"Cc1cc2cc(Oc3ccnc(Nc4cccc(CS(=O)(=O)NCCN(C)C)c4)n3)ccc2[nH]1 [Compound A, N-(2-(dimethylamino)ethyl)-1-(3-((4-((2-methyl-1H-indol-5-yl)oxy)pyrimidin-2-yl)amino)phenyl)-methanesulfonamide]",IC50,[1],159 nM
same,IRTW (tumor weight inhibition),[2]; [3],49.9* %
same,TGI (tumor growth inhibition),[2]; [3],57.1%
same,TGI (tumor growth inhibition),"[2]; 40 mg/kg bid oral, end of study",73.9%
same,TGI (tumor growth inhibition),"[2]; 80 mg/kg bid oral, end of study",80.0%
same,clinical signs of toxicity,"[2]; treated mice, 20, 40 and 80 mg/kg bid oral",No clinical signs of toxicity were observed
